One series has as its system HepDE19 cells. Put plainly: Cytotoxicity (CCK-8 cell viability) and selectivity index. In kind it is cell-based, human. To be noted: cytotoxicity, concentration resulting in death of 50% of host cells. The source says:
HepG2.2.15 and HepDE19 are stably-transfected cell lines containing the HBV genome. Both cell lines are derived from the hepatoblastoma cell line Hep G2 (American Type Culture Collection, ATCC® HB-8065™) by the published procedures described in references: M A Selles et al. Proc. Natl. Acad. Sci. USA 1987, 84, 1005-1009 and H Guo et al. Journal of Virology 2007, 81, 12472-12484, respectively. Both cell lines were maintained in Dulbecco's modified Eagle's medium (DMEM)-F12 medium supplemented with 10% fetal bovine serum, 100 U/mL penicillin, 100 μg/mL streptomycin, and 0.5 mg/mL of G418.
In a cell culture model, apparent antiviral activity of a compound can be the result of host cell death after exposure to the compound. To determine whether the anti-HBV effect of a test compound is due to cytotoxicity, HepDE19 cells were seeded into 96-well plates (5×10^3 cells per well) and treated with compounds as described above for EC50 determination. Five days after treatment, cell viability was measured by addition of 20 μL of CCK-8 reagent. Two hours after incubation at 37° C., the absorbance at wavelengths of 450 nm and 630 nm (OD450 and OD630) was recorded by a plate reader. The concentration results in the death of 50% of the host cells (CC50) of each compound was determined (See Table 5).

Series [1] deals with HBV replication in HepG2.2.15 cells. Put plainly: Anti-HBV activity in vitro in HepG2.2.15 cells (extracellular HBV DNA by qPCR). In kind it is cell-based. To be noted: read-out: EC50. A digest of the protocol: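 EC50 is derived from qPCR of extracellular viral DNA in culture supernatant after 5-day compound exposure. Cells (HepG2.2.15, stably carrying the HBV genome) were plated and incubated overnight at 37 °C before half-log dilution series were added at 0.5% final DMSO.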
(In general: Real-time PCR tracks product formation cycle by cycle.)

Series [2] is described as follows: Human microsomal clearance assay. In kind it is in vitro ADME. A digest of the protocol:
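Liver microsomes (0.5 mg/mL protein) were incubated with 1 μM compound at 37 °C, pH 7.4 phosphate, with an NADPH-regenerating system. Samples at 0-30 min were quenched and measured by LC-MS/MS for parent loss. No-NADPH controls were included.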

Series [3] is described as follows: Lyophilisation solubility assay (Lysa). In kind it is physicochemical. To be noted: for solubility thermodynamic: pH 6.5, aqueous buffer, thermodynamic from solid. On the procedure:
The aqueous solubility is an important physico-chemical property that plays a significant role in various physical and biological processes. It is desirable to have good solubility which enables good permeability and gastric and intestinal absorption, linear dose proportionality, less PK variability, and easy formulation for PD/PK studies. […] Lyophilisation solubility assay (Lysa) is a well adopted high throughput assay to measure compound solubility in industry.
Samples are prepared in duplicate from 10 mM DMSO stock solutions. After evaporation of DMSO with a centrifugal vacuum evaporator, the residue is solved in 0.05 M phosphate buffer (pH 6.5), stirred for one hour and then shook for two hours. After one night, the solution is filtered using a microtiter filter plate and then the filtrate and its 1/10 dilution are then analyzed by direct UV measurement or by HPLC-UV. In addition a four-point calibration curve is prepared from the 10 mM stock solutions and used for the solubility determination of the compounds. The results are in μg/ml. In case the percentage of sample measured in solution after evaporation divided by the calculated maximum of sample amount is bigger than 80% the solubility is reported as bigger than this value.

[4] abbreviates: Anti-HBV activity in HepG2.2.15 cells.
Setting [5] is: Hepatitis B virus, HepG2.2.15, Anti-HBV activity in HepG2.2.15 cells.

In brackets after ≈: the same amount, converted by molar mass. Where two headings read alike, the source gives them in different places. Bounds are passed on as bounds.

What is called CC50 is the concentration at which the toxic effect on the cells reaches its halfway point. A lower CC50 goes with harm at low concentration. By EC50 is commonly meant the concentration giving half of the maximal effect. The compound `COC(=O)C1=C(CN2[C@@H]3C[C@@H](CC(=O)O)C[C@H]2C(F)(F)C3)NC(c2nccs2)=N[C@H]1c1ccc(Cl)c(F)c1` (single isomer, unassigned) [Example 113, 2-[(1R,3R,5S)-8-[[(4S)-4-(4-chloro-3-fluoro-phenyl)-5-methoxycarbonyl-2-thiazol-2-yl-1,4-dihydropyrimidin-6-yl]methyl]-6,6-difluoro-8-azabicyclo[3.2.1]octan-3-yl]acetic acid or 2-[(1S,3S,5R)-8-[[(4S)-4-(4-chloro-3-fluoro-phenyl)-5-methoxycarbonyl-2-thiazol-2-yl-1,4-dihydropyrimidin-6-yl]methyl]-6,6-difluoro-8-azabicyclo[3.2.1]octan-3-yl]acetic acid] showed a CC50 in the series on HepDE19 cells of 58000 nM. Also, the 50% effective concentration (EC50) in series [1] (setting [4]) amounted to 9.1 nM. Moreover, the CLh in series [2] (human microsomal clearance) came out at 6.2 mL/min/kg.

Consider `COC(=O)C1=C(CN2[C@H]3COC[C@@H]2C(F)(F)[C@H](CC(=O)O)C3)NC(c2nccs2)=N[C@H]1c1ccc(F)c(F)c1Cl` (single isomer, unassigned) [Example 131, 2-[(1R,5R,7S)-9-[[(4R)-4-(2-chloro-3,4-difluoro-phenyl)-5-methoxycarbonyl-2-thiazol-2-yl-1,4-dihydropyrimidin-6-yl]methyl]-6,6-difluoro-3-oxa-9-azabicyclo[3.3.1]nonan-7-yl]acetic acid or 2-[(1S,5S,7R)-9-[[(4R)-4-(2-chloro-3,4-difluoro-phenyl)-5-methoxycarbonyl-2-thiazol-2-yl-1,4-dihydropyrimidin-6-yl]methyl]-6,6-difluoro-3-oxa-9-azabicyclo[3.3.1]nonan-7-yl]acetic acid], for which the CC50 in the series with HepDE19 cells was 53000 nM. Further, in series [1] (setting [4]), the EC50 worked out at 5.7 nM. The compound also came in with a Lysa in series [3] (0.05 M phosphate buffer (pH 6.5), reported as bigger than the value if more than 80% of the sample is in solution) of 261 µg/mL. In series [2] (human microsomal clearance), the CLh was 0 mL/min/kg.

Broadly, the solubility (thermodynamic) is solubility found after equilibrating the solid with the medium. Consider `COC(=O)C1=C(CN2C3COCC2CC(C(=O)O)C3)NC(c2nccs2)=N[C@H]1c1ccc(F)cc1Cl` (stereo partly drawn) [Example 1, 9-[[(4R)-4-(2-chloro-4-fluoro-phenyl)-5-methoxycarbonyl-2-thiazol-2-yl-1,4-dihydropyrimidin-6-yl]methyl]-3-oxa-9-azabicyclo[3.3.1]nonane-7-carboxylic acid], for which the EC50 in series [1] (setting [5]) is 59 nM. The thermodynamic solubility in series [3] is 540 µg/mL (≈ 1010 µM). The same compound registered a CLh in series [2] (human, 1 μM, pH 7.4) of 3.0 mL/min/kg.

For `CCOC(=O)C1=C(CN2C3COCC2C(OCC(=O)O)C3)NC(c2nccs2)=N[C@H]1c1ccc(F)cc1Br` (mixture of isomers) [Example 50, 2-[[8-[[(4R)-4-(2-bromo-4-fluoro-phenyl)-5-ethoxycarbonyl-2-thiazol-2-yl-1,4-dihydropyrimidin-6-yl]methyl]-3-oxa-8-azabicyclo[3.2.1]octan-6-yl]oxy]acetic acid], in series [1] (setting [5]), the EC50 was found to be 24.1 nM. Also, in series [3], the thermodynamic solubility was over 724 µg/mL. The compound further yielded a CLh in series [2] (human, 1 μM, pH 7.4) of 1.4 mL/min/kg.

Regarding `COC(=O)C1=C(CN2[C@H]3COC[C@@H]2[C@@H](F)[C@H](CC(=O)O)C3)NC(c2nccs2)=N[C@H]1c1cccc(F)c1Cl` [Example 101, 2-[(1R,5R,6S,7S)-9-[[(4R)-4-(2-chloro-3-fluoro-phenyl)-5-methoxycarbonyl-2-thiazol-2-yl-1,4-dihydropyrimidin-6-yl]methyl]-6-fluoro-3-oxa-9-azabicyclo[3.3.1]nonan-7-yl]acetic acid], the EC50 in series [1] (setting [5]) was 24 nM. The same compound yielded a solubility (thermodynamic) in series [3] of 580 µg/mL (≈ 1020 µM). For the same compound, in series [2] (human, 1 μM, pH 7.4), the CLh came to 0 mL/min/kg.

For the compound `COC(=O)C1=C(CN2C3COCC2C(O)[C@@H](CC(=O)O)C3)NC(c2nccs2)=N[C@H]1c1ccc(F)cc1Cl` (stereo partly drawn) [Example 124, 2-[(7R)-9-[[(4R)-4-(2-chloro-4-fluoro-phenyl)-5-methoxycarbonyl-2-thiazol-2-yl-1,4-dihydropyrimidin-6-yl]methyl]-6-hydroxy-3-oxa-9-azabicyclo[3.3.1]nonan-7-yl]acetic acid], the EC50 in series [1] (setting [5]) amounted to 296 nM. This compound came in with a thermodynamic solubility in series [3] of over 753 µg/mL. Besides, the CLh in series [2] (human, 1 μM, pH 7.4) worked out at 4.2 mL/min/kg.
